Experimental data reported in the NIST ThermoML archive (doi:10.1021/je0603325).

Assay: xn = mol fraction of the nth substance listed
Conditions: 101 kPa, Liquid

BrCCBr [1,2-dibromoethane] + CCCCCCC
Conditions	mass density [kg/m3]	speed of sound [m/s]
292.6 K, x1 = 0.6005	–	996.77
292.62 K, x1 = 0.2	–	1079.5
292.64 K, x1 = 0.1024	–	1112.1
292.64 K, x1 = 0.2986	–	1050.8
292.66 K, x1 = 0.6997	–	989.87
292.68 K, x1 = 0.4002	–	1027.2
292.68 K, x1 = 0.8004	–	989.25
292.7 K, x1 = 0.4996	–	1009.4
292.7 K, x1 = 0.9061	–	995.84
292.84 K, x1 = 1	–	1007.5
293.15 K, x1 = 0.1018	776.01	–
293.15 K, x1 = 0.2052	878.46	–
293.15 K, x1 = 0.2931	973.9	–
293.15 K, x1 = 0.3754	1070.54	–
293.15 K, x1 = 0.3919	1091.09	–
293.15 K, x1 = 0.5009	1234.71	–
293.15 K, x1 = 0.5993	1379.31	–
293.15 K, x1 = 0.6916	1530.51	–
293.15 K, x1 = 0.7886	1707.97	–
293.15 K, x1 = 0.8919	1922	–
293.15 K, x1 = 1	2178.77	–
298.15 K, x1 = 0.1018	771.16	–
298.15 K, x1 = 0.2052	872.98	–
298.15 K, x1 = 0.2931	968	–
298.15 K, x1 = 0.3754	1064.3	–
298.15 K, x1 = 0.3919	1084.74	–
298.15 K, x1 = 0.5009	1227.73	–
298.15 K, x1 = 0.5993	1372.04	–
298.15 K, x1 = 0.6916	1522.49	–
298.15 K, x1 = 0.7886	1699.34	–
298.15 K, x1 = 0.8919	1912.55	–
298.15 K, x1 = 1	2168.41	–
298.56 K, x1 = 0.1024	–	1088
298.56 K, x1 = 0.9061	–	980
298.58 K, x1 = 0.2	–	1056.5
298.59 K, x1 = 0.4996	–	990.17
298.59 K, x1 = 0.6005	–	978.03
298.6 K, x1 = 0.4002	–	1006.7
298.6 K, x1 = 0.6997	–	972.29
298.68 K, x1 = 0.8004	–	972.17
298.69 K, x1 = 0.2986	–	1028.6
299.17 K, x1 = 1	–	991.14
303.15 K, x1 = 0.1018	766.4	–
303.15 K, x1 = 0.2052	867.72	–
303.15 K, x1 = 0.2931	962.23	–
303.15 K, x1 = 0.3754	1058	–
303.15 K, x1 = 0.3919	1078.36	–
303.15 K, x1 = 0.5009	1220.93	–
303.15 K, x1 = 0.5993	1364.69	–
303.15 K, x1 = 0.6916	1514.35	–
303.15 K, x1 = 0.7886	1690.56	–
303.15 K, x1 = 0.8919	1903.13	–
303.15 K, x1 = 1	2157.94	–
303.37 K, x1 = 1	–	980.18
303.54 K, x1 = 0.4002	–	989.74
303.57 K, x1 = 0.9061	–	966.53
303.59 K, x1 = 0.1024	–	1067.7
303.61 K, x1 = 0.2	–	1037.2
303.61 K, x1 = 0.6997	–	957.6
303.62 K, x1 = 0.6005	–	962.51
303.65 K, x1 = 0.2986	–	1010.6
303.66 K, x1 = 0.4996	–	973.72
303.78 K, x1 = 0.8004	–	957.87
308.15 K, x1 = 0.1018	761.38	–
308.15 K, x1 = 0.2052	862.14	–
308.15 K, x1 = 0.2931	956.31	–
308.15 K, x1 = 0.3754	1051.8	–
308.15 K, x1 = 0.3919	1071.93	–
308.15 K, x1 = 0.5009	1213.97	–
308.15 K, x1 = 0.5993	1357.19	–
308.15 K, x1 = 0.6916	1506.3	–
308.15 K, x1 = 0.7886	1681.76	–
308.15 K, x1 = 0.8919	1893.55	–
308.15 K, x1 = 1	2147.47	–
308.44 K, x1 = 0.9061	–	953.47
308.57 K, x1 = 0.6997	–	943.03
308.58 K, x1 = 0.4002	–	972.63
308.59 K, x1 = 0.6005	–	947.22
308.59 K, x1 = 0.8004	–	944.46
308.62 K, x1 = 0.1024	–	1047.4
308.62 K, x1 = 0.2986	–	992.63
308.65 K, x1 = 0.2	–	1018
308.75 K, x1 = 1	–	966.56
309.57 K, x1 = 0.4996	–	954.55
313.15 K, x1 = 0.1018	756.39	–
313.15 K, x1 = 0.2052	856.68	–
313.15 K, x1 = 0.2931	950.37	–
313.15 K, x1 = 0.3754	1045.35	–
313.15 K, x1 = 0.3919	1065.57	–
313.15 K, x1 = 0.5009	1207.14	–
313.15 K, x1 = 0.5993	1349.51	–
313.15 K, x1 = 0.6916	1498.2	–
313.15 K, x1 = 0.7886	1673.14	–
313.15 K, x1 = 0.8919	1884.12	–
313.15 K, x1 = 1	2136.96	–
314.45 K, x1 = 1	–	952
314.52 K, x1 = 0.9061	–	937.35
314.55 K, x1 = 0.6997	–	925.53
314.56 K, x1 = 0.2	–	995.72
314.58 K, x1 = 0.4002	–	952.25
314.58 K, x1 = 0.8004	–	927.74
314.59 K, x1 = 0.1024	–	1023.6
314.59 K, x1 = 0.4996	–	938.54
314.59 K, x1 = 0.6005	–	928.96
314.61 K, x1 = 0.2986	–	971.18
